Measurements published in patent US9139592B2, “Modulators of Nrf2 and uses thereof” (TRT PHARMA INC., priority 2010, dated 2015).
Entries after “also recorded” stand apart in the source; their conditions may differ.

Legend:
Assay type in all cases: cell-based
MCF-7 cells [1] = assay: Protection of MCF-7 cells from cytotoxic damage of B[a]P (MTT); conditions: low dose range 50 nM to 200 nM, 48 h pre-incubation, then 160 nM B[a]P + compound 72 h
Experimental: (§1) Cells are seeded at 4×10^3 per well using 96-well plate, grown overnight before being treated with test compounds for 72 h. Viable cells are measured by MTT assays. To evaluate the ability of test compounds in protecting MCF-7 cells from the damage of B[a]P, MCF-7 cells are seeded at 2×10^3 per well using 96-well plate, grown overnight before being treated with test compounds at designed concentration for 48 h. Next, cells are treated with 160 nM B[a]P in the presence of test compound for another 72 h. The viable cells are measured using MTT assays. Experiments are performed in triplicate and repeated twice.
To test the capability of BM compounds in protecting against the cytotoxic effect of B[a]P, cellular assays using MCF-7 cells are performed. Incubation of MCF-7 cells with various concentrations of BM31 for 48 hours is followed by incubation with 160 nM B[a]P+the BM31 for 72 hours. MTT assays are performed to evaluate the protection effect of the BM31. DMSO without B[a]P was used as a control.

[2] = tested on: Nrf2 nuclear translocation in HepG2 cells; assay: Western blot of nuclear Nrf2 (Nrf2 nuclear translocation) in HepG2 cells; conditions: 24 h
Experimental: (§2) Cells are treated with test compounds at designated concentrations and are harvested at 24 h. Sixty microgram of cell-lysate protein and 35 ug of nuclear extract are loaded into each lane, and electrophoresed through a 4-20% gradient SDS-PAGE gel (Bio-Rad, Mississauga, ON, Canada), and transferred onto a nitrocellulose membrane. The membrane is incubated with primary antibody and subsequently incubated with HRP-conjugated secondary antibody. Finally, ECL detection is carried out, and the results were recorded on X-ray film by autophotography.
(§3) The 23 top-score molecules from the first round of virtual screening are initially tested in the cell-based ARE-driven luciferase assay. Specifically, HepG2 cell line are transfected with ARE-driven pGL3 luciferase vector and then exposed to individual test compounds at 10, 50 μM. Classical Nrf2 inducers EQ and SFN were used as the positive controls. […] To examine the effect of these active compounds on Nrf2 nuclear translocation, Western blot analysis is used to measure the nuclear level of Nrf2 after cells are exposed to these compounds.

Nrf2/Keap1 complex = target: T1, Nrf2/Keap1 complex (Homo sapiens, UniProt Q14145); assay: Co-IP of Keap1 and Nrf2 in co-transfected 293T cells; conditions: 293T cells co-transfected with Nrf2 and Keap1; 24 h; BM31 50 μM, SFN 5 μM
T1 construct: expressed in transfected cells; host or cells: 293T
Experimental: FIG. 5 illustrates 293T cell lysates immunoprecipitated with Keap1 antibody and the eluted proteins were immunoblotted with Nrf2 antibody. Lane 1: Nrf2 transfection; Lanes 2, 3, 4: Nrf2 and Keap1 co-transfection. Lanes 2, 3, 4: treated with DMSO, BM31 (50 μM) and SFN (5 μM), respectively.
To study the effect of BM31 on the interaction of Keap1 and Nrf2, Co-IP experiments are performed. 293T cells are successfully transfected and achieved high Nrf2 expression in this cell line. In the co-IP experiments, 293T cells are co-transfected with Nrf2 and Keap1 expression vectors. After transfection, the cells are treated with SFN and BM31 for 24 h before harvesting. The cell lysates are used for IP with Keap1 antibody. The eluted proteins are immunoblotted with Nrf2 antibody. […] For example, arsenic induces the Nrf2-dependent response through markedly enhancing the interaction between Keap1 and Cul3, subunits of the E3 ubiquitin ligase for Nrf2, which leads to impaired dynamic assembly/disassembly of the E3 ubiquitin ligase and thus decreases its ligase activity, resulting in inhibition of Nrf2 ubiquitination and degradation. Our further work will determine whether BM31 induces Nrf2 via a mechanism similar to that of arsenic.

[3] = tested on: γ-glutamylcysteine synthetase (GCS), a Nrf2-regulated protein, in HepG2 cells; assay: Western blot of γ-glutamylcysteine synthetase (GCS) in HepG2 whole cell extracts; conditions: 24 h; for induction of GCS: whole cell protein extracts
Experimental: FIG. 3B illustrates endogenous γ-glutamylcysteine synthetase (GCS), a Nrf2-regulated protein, in whole cell protein extracts, detected by Western blotting. HepG2 cells were treated with EQ, SFN, DMSO, BM10, BM31 and BM40 at designated concentrations for 24 h.
as §2
Nrf2 is a master transcription factor regulating multiple ARE-regulated antioxidant and detoxifying enzymes, such as GCS, glutathione S-transferase (GST), NAD(P)H quinone oxidoreductase-1 (NQO1), and UDP glucuronosyltransferase (UGT), etc. The effects of our lead compounds on GCS are examined.

[4] = tested on: Keap1 mutants (C257S, C273S, C288S, C297S) / ARE-driven luciferase in 293T cells; assay: ARE-driven luciferase assay in 293T cells co-transfected with Nrf2 and Keap1 IVR cysteine mutants; conditions: for effect of Keap1 C273S and C288S mutations on activation of ARE-driven luciferase activities / effect of Keap1 C297S mutant on potency in activating ARE-driven luciferase activities: 293T cells
Experimental: (§4) One representative ARE (A2-ARE) from GSTA2 is used in this work, and A2-ARE are cloned into the KpnI and MluI sites of pGL3-promoter vector, which contains a heterologous SV40 promoter and a firefly luciferase reporter gene. Cells are seeded at 1×10^5 per well using 24-well plate, grown overnight before being transfected transfected with pGL3 and other designated constructs using LipofectAMINE (Invitrogen) for 5 h. The plasmid pRL, containing a renilla reniformis luciferase reporter gene, is cotransfected as internal control to correct transfection efficiency. After transfection, cells are treated with test compounds at designated concentrations for 24 h prior to harvesting. The cells are then washed twice with phosphate-buffered saline and harvested in 100 uL of 1× passive lysis buffer (Promega, Madison, Wis., USA). The luciferase activities are analyzed in 20-uL cell extracts with the Dual luciferase Assay™ kit (Promega) on a Lumat LB 9507 luminometer (Berthold Technologies, Oak Ridge, Tenn., USA). The related luciferase activities are expressed as a ratio of the pGL3 reporter activity to that of the control plasmid pRL. The fold of induction is expressed as ratio of induction from the treated cells versus the untreated. Values represent measurements from three independent experiments performed in triplicate and are presented as the mean±SEM.
Keap1 is a multi-domain protein, in which the IVR domain contains 4 cysteine residues, C257, C273, C288 and C297. The known Nrf2 inducers may interact with these cysteine residues in the IVR domain, resulting in conformational change of Keap1 and ultimately activating Nrf2. To investigate the role of these active cysteine residues in the Nrf2-inducing activity of BM31, 4 Keap1 mutants (C257S, C273S, C288S and C297S) are tested. BM31 is selected for this and further investigation because the dose-response is consistent for its capability in inducing Nrf2 nuclear translocation and induction of enzyme GCS (FIG. 3). Co-transfection experiments to investigate the effects of Keap1 IVR cysteine mutants on ARE-driven luciferase activities are performed. Specifically, 293T cells are co-transfected with ARE-driven pGL3 luciferase report vector, Keap1 vector with and without the Nrf2 expression vector (FIG. 4). After transfection, the cells are exposed to BM31 at 50 μM for 16 h before harvest. The cell lysates are used for measurement of ARE-driven luciferase activities. […] Our conclusion is that BM31 targets the binding site around C297 in the IVR domain of Keap1, and mutation of residue C297 partially abolishes the Nrf2-inducing effect of BM31.

MCF-7 cells [5] = assay: MCF-7 cell viability (MTT, 72 h); conditions: dose range 10 nM to 10 μM
Experimental: FIG. 9 illustrates MCF-7 cell survival curves for BM10, BM31, BM40 and SFN. MCF-7 cells were treated with test compounds at designated concentrations for 72 hours. Viable cells were evaluated by MTT assays. Experiments were performed in triplicate and repeated twice.
as §1

[6] = tested on: ARE-driven luciferase activity (Nrf2) in HepG2 cells; assay: ARE-driven luciferase assay in HepG2 cells; conditions: test compounds at 10, 50 μM, 24 h
Experimental: as §4, §3

T1 sequence (Q14145 whole entry): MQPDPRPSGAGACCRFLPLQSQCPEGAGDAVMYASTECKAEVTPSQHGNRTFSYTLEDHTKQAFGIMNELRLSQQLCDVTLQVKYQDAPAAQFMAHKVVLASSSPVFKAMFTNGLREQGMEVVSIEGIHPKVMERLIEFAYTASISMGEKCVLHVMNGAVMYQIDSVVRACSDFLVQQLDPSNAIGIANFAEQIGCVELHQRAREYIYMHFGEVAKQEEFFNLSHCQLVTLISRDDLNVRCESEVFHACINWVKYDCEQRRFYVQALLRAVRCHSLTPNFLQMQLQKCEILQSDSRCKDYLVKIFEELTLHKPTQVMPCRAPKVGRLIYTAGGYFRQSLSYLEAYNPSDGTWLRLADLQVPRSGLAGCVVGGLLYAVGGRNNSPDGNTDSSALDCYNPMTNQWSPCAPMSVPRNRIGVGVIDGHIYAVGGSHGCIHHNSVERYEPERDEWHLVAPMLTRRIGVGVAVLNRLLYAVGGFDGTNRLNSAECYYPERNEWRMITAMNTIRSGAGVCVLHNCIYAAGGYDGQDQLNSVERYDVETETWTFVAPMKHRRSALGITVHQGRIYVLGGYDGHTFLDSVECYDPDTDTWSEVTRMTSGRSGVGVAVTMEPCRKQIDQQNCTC
T1 sequence (Q16236 whole entry partner): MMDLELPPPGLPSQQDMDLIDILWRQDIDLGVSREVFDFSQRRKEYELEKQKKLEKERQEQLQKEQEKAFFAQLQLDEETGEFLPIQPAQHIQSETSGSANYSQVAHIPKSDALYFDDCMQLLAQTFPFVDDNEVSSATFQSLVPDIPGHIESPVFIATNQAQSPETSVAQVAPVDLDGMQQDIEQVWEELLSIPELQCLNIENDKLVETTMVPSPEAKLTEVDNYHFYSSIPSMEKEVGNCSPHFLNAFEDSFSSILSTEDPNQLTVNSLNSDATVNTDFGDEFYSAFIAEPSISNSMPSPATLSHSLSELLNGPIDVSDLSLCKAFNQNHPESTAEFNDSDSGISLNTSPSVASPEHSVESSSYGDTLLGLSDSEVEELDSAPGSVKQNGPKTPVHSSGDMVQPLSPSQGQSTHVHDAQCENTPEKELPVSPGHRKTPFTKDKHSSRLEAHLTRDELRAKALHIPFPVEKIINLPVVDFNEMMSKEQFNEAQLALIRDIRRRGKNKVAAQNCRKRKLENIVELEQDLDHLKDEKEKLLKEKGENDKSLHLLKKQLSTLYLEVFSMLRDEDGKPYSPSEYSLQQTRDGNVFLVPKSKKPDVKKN

## Clc1ncnc2c1ncn2[C@H]1CCCS1 [BM31]
MCF-7 cells [1]
  protection of MCF-7 cells from cytotoxic damage of B[a]P: significant protection; also recorded: provides protections
[2]
  induction of Nrf2 nuclear translocation (nuclear Nrf2 by Western blot): potent Nrf2 inducers; also recorded: triggered Nrf2 nuclear translocation
  potency in elevating nuclear Nrf2 compared with SFN: comparable to that of SFN
Nrf2/Keap1 complex
  effect on Nrf2/Keap1 complex (Keap1 IP, Nrf2 immunoblot): increases the Nrf2/Keap1 complex
[3]
  potency in inducing GCS compared with SFN and EQ: comparable to that of SFN and EQ
  induction of GCS: induced expression
[4]
  effect of Keap1 C273S and C288S mutations on activation of ARE-driven luciferase activities: do not completely abolish
  effect of Keap1 C297S mutant on potency in activating ARE-driven luciferase activities: limits the potency; also recorded: abolished the Nrf2 induction activity
[4]; 293T cells co-transfected with ARE-pGL3, Nrf2 and mutant Keap1, BM31 50 μM, 16 h
  induction of ARE-driven luciferase activities with C257S, C273S or C288S mutant Keap1: potently induces
MCF-7 cells [5]
  cytotoxic effects on proliferation of MCF-7 cells: do not have cytotoxic effects

## C[S+]([O-])CCCCN=C=S (stereo not shown) [SFN, sulforaphane, reference compound]
Nrf2/Keap1 complex
  effect on Nrf2/Keap1 complex (Keap1 IP, Nrf2 immunoblot): increases the Nrf2/Keap1 complex
[4]
  effect of Keap1 C273S and C288S mutations on activation of ARE-driven luciferase activities: do not completely abolish
  effect of Keap1 C297S mutant on potency in activating ARE-driven luciferase activities: did not affect the potency

## Ic1ncnc2c1ncn2[C@H]1CCCS1 [BM10]
[2]
  induction of Nrf2 nuclear translocation (nuclear Nrf2 by Western blot): most potent; also recorded: triggered Nrf2 nuclear translocation
  potency in elevating nuclear Nrf2 compared with SFN: comparable to that of SFN
[3]
  induction of GCS: modest potency; also recorded: induced expression
MCF-7 cells [5]
  cytotoxic effects on proliferation of MCF-7 cells: do not have cytotoxic effects

## O=C(c1ccccc1)C1COc2ccccc2C1O (stereo not shown) [BM40]
[2]
  induction of Nrf2 nuclear translocation (nuclear Nrf2 by Western blot): potent Nrf2 inducers; also recorded: triggered Nrf2 nuclear translocation
  potency in elevating nuclear Nrf2 compared with SFN: comparable to that of SFN
[3]
  potency in inducing GCS compared with SFN and EQ: comparable to that of SFN and EQ
  induction of GCS: induced expression
MCF-7 cells [5]
  cytotoxic effects on proliferation of MCF-7 cells: do not have cytotoxic effects

## Nc1nc(N)c2ncn(Cc3ccccc3)c2n1 [BM6]
[2]
  induction of Nrf2 nuclear translocation (nuclear Nrf2 by Western blot): modest activity; also recorded: triggered Nrf2 nuclear translocation
[6]
  induction of ARE-driven luciferase activities: potently induce

## Cc1nnc(Cc2ccco2)c2[nH]nc(C)c12 [BM19]
[2]
  induction of Nrf2 nuclear translocation (nuclear Nrf2 by Western blot): triggered Nrf2 nuclear translocation

## O=C1C[C@@H](c2ccccc2)Oc2cc(O)cc(O)c21 [BM5]
[2]
  induction of Nrf2 nuclear translocation (nuclear Nrf2 by Western blot): triggered Nrf2 nuclear translocation

## Nc1nc(S)c2ncn(C3CCCCC3)c2n1 [BM9]
[2]
  induction of Nrf2 nuclear translocation (nuclear Nrf2 by Western blot): modest activity; also recorded: triggered Nrf2 nuclear translocation

## COc1ccc2nc3cc(Cl)ccc3c(C#N)c2c1 [BM4]
[2]
  induction of Nrf2 nuclear translocation (nuclear Nrf2 by Western blot): modest activity; also recorded: triggered Nrf2 nuclear translocation
[6]
  induction of ARE-driven luciferase activities: potently induce

## Cc1n[nH]c2c(Cc3ccco3)nnc(O)c12 [BM18]
[2]
  induction of Nrf2 nuclear translocation (nuclear Nrf2 by Western blot): modest activity; also recorded: triggered Nrf2 nuclear translocation
[6]
  induction of ARE-driven luciferase activities: potently induce
